Series [1] deals with P. falciparum strain K1. In words: In vitro antiplasmodial activity. The note with it: Plasmodium falciparum. The class given is cell-based. The protocol:
(§1) The antiplasmodial and cytotoxic activity determinations of all cyclopeptide alkaloids were performed as reported before. Each experiment was performed at least in triplicate and the average IC50 values were calculated.

Series [2] can be described thus: Cytotoxicity against MRC-5 cells. The following applies: human. The protocol:
as §1

In series [3] the test system is Plasmodium falciparum. The following applies: cited from earlier work; for IC50: read-out: antiplasmodial IC50.
Series [4] concerns P. falciparum strain K1. On the set-up: method as in PMID 27351950, PMID 27933893. The note with it: previously reported by the same group, same test conditions; cited from earlier work.
The test system of series [5] is MRC-5 cells. The note with it: cited from earlier work.
[6] abbreviates: strain K1, average of at least triplicate, read-out: P. falciparum K1 IC50.
[7] abbreviates: read-out: MRC-5 IC50, cytotoxicity, previously reported by the same group.
The mark [8] stands for this setting: corresponding to the μg/mL values, Suksamrarn et al.

Where two headings read alike, the source gives them in different places.

For orientation: IC50 means the concentration needed to halve the response being measured.

Take `CCN(CC)CCCC(C)Nc1ccnc2cc(Cl)ccc12` (stereo not shown) [Chloroquine, reference compound]: in series [1] (K1, read-out: P. falciparum K1 IC50), the 50% inhibitory concentration (IC50) was 0.15 µM. As for `CCC(C)[C@@H]1NC(=O)[C@@H]2[C@H](CCN2C(=O)[C@@H](NC)C(C)CC)Oc2ccc(cc2)/C=C\NC1=O` (stereo partly shown) [Compound 1, Nummularine-U], the IC50 in series [1] (setting [6]) was 23 ± 8.5 µM; in series [2] (MRC-5 cells) it was over 64 µM.

Consider `CN[C@@H](C)C(=O)N[C@H](C(=O)N1CC[C@@H]2Oc3ccc(cc3)/C=C\NC(=O)[C@H](Cc3ccccc3)NC(=O)[C@H]21)C(C)C` [Compound 2, Mauritine-F], for which the IC50 is 34.2 ± 9.14 µM in series [1] (setting [6]) and over 64 µM in series [2].

As for `CCC(C)[C@@H]1NC(=O)[C@@H]2[C@H](CCN2C(=O)[C@@H](NC(=O)[C@H](Cc2ccccc2)N(C)C)C(C)CC)Oc2ccc(O)c(c2)/C=C\NC1=O` (stereo partly shown) [Compound 3, Spinanine-B], the values for the 50% inhibitory concentration (IC50) in series [1] (setting [6]) and in series [2] were 2.1 ± 0.3 µM and over 64 µM, respectively.

For the molecule `CC(C)C[C@@H]1NC(=O)[C@@H](NC(=O)[C@H](C(C)O)N(C)C)[C@H](c2ccccc2)Oc2ccc(cc2)/C=C\NC1=O` (stereo partly shown) [Compound 4, Nummularine-E], the IC50 in series [1] (setting [6]) and in series [2] (MRC-5 cells) was over 64 µM each time. Turning to `CCC(C)[C@@H]1NC(=O)[C@@H]2[C@H](CCN2C(=O)[C@@H](NC(=O)[C@H](Cc2ccccc2)N(C)C)C(C)CC)Oc2ccc(cc2)/C=C\NC1=O` (stereo partly shown) [Compound 5, Amphibine-D], the values for the 50% inhibitory concentration (IC50) in series [1] (setting [6]) and in series [2] were 8.9 ± 1.5 µM and over 64 µM, respectively. Turning to `CN[C@@H](C)C(=O)N[C@H](C(=O)N1CC[C@@H]2Oc3ccc(OC)c(c3)/C=C\NC(=O)[C@H](C(C)C)NC(=O)[C@H]21)C(C)C` [Compound 6, Jubanine-F], the IC50 is 12.8 ± 2.9 µM in series [1] (setting [6]) and over 64 µM in series [2]. The matching figures for `CCC(C)[C@H](NC(=O)[C@H](C)NC)C(=O)N1CC[C@@H]2Oc3ccc(OC)c(c3)/C=C\NC(=O)[C@H](C(C)C)NC(=O)[C@H]21` (stereo partly shown) [Compound 7, Jubanine-G]: 4.7 ± 2.4 µM and over 64 µM. With `CN[C@@H](C)C(=O)N[C@H](C(=O)N1CC[C@@H]2Oc3ccc(OC)c(c3)/C=C\NC(=O)[C@H](Cc3ccccc3)NC(=O)[C@H]21)C(C)C` [Compound 8, Nummularine-B], the IC50 was 3.6 ± 1.3 µM in series [1] (setting [6]), over 64 µM in series [2] and 10.3 µM in series [3] (Panseeta et al.). Further, the “antiplasmodial activity against Plasmodium falciparum (in words)” value in series [3] (Panseeta et al.) is given as “moderately active”. Consider `CC[C@H](C)[C@@H]1NC(=O)[C@@H](NC(=O)[C@H](CC(C)C)N(C)C)[C@H](C(C)C)Oc2ccc(cc2)/C=C\NC1=O` [Compound 9, Adouetine-X], for which the results for the concentration for half-maximal inhibition (IC50) in series [1] (setting [6]) and in series [2] (MRC-5 cells) were 7.5 ± 1.8 µM and 19.1 ± 11.9 µM, respectively. `CCC(C)[C@@H](C(=O)N[C@@H]1C(=O)N[C@@H](CC(C)C)C(=O)N/C=C\c2ccc(cc2)O[C@H]1C(C)C)N(C)C` (stereo partly shown) [Compound 10, Frangulanine]: the results for the IC50 in series [1] (setting [6]) and in series [2] (MRC-5 cells) were 14.9 ± 5.2 µM and 30.6 ± 6.5 µM, respectively. `CCC(C)[C@@H](C(=O)N[C@H](C(=O)N[C@@H]1C(=O)N[C@@H](Cc2c[nH]c3ccccc23)C(=O)NCC(=O)c2ccc(cc2)OC1(C)C)C(C)C)N(C)C` (stereo partly shown) [Compound 11, Hymenocardine]: the figures for the half-inhibitory concentration (IC50) in series [4] and in series [5] were 16.4 ± 6.8 µM and 51.1 ± 17.2 µM, respectively. Take `CCC(C)[C@@H](C(=O)N[C@H](C(=O)N[C@@H]1C(=O)N[C@@H](Cc2c[nH]c3ccccc23)C(=O)NCC(O)c2ccc(cc2)OC1(C)C)C(C)C)N(C)C` (stereo partly shown) [Compound 12, Hymenocardinol]: the IC50 was 17.5 ± 8.7 µM in series [4] and over 64 µM in series [5].

In the case of `CCC(C)[C@@H](C(=O)N[C@H](C(=O)N[C@@H]1C(=O)N[C@@H](Cc2c[nH]c3ccccc23)C(=O)NCC(=O)c2ccc(cc2)OC1(C)C)C(C)C)[N+](C)(C)[O-]` (stereo partly shown) [Compound 13, Hymenocardine N-oxide], the half-maximal inhibitory concentration (IC50) in series [4] was 12.2 ± 6.6 µM; in series [5], over 64 µM. With `CCC(C)[C@H](NC(=O)[C@H](C(C)CC)N(C)C)C(=O)N[C@@H]1C(=O)N[C@@H](Cc2c[nH]cn2)C(=O)NCC(=O)c2ccc(cc2)O[C@H]1C(C)C` (stereo partly shown) [Compound 14, Hymenocardine-H], the half-maximal inhibitory concentration (IC50) is 27.9 ± 16.5 µM in series [4] and over 64 µM in series [5]. With `CCC(C)[C@@H]1NC(=O)[C@@H]2[C@H](CCN2C(=O)[C@H](Cc2c[nH]c3ccccc23)N(C)C)Oc2ccc(OC)c(c2)/C=C\NC1=O` (stereo partly shown) [Compound 15, Nummularine-R], the half-maximal inhibitory concentration (IC50) in series [4] was 3.2 ± 2.6 µM; in series [5] (setting [7]), 30.6 ± 4 µM. With `CCC(C)[C@@H]1NC(=O)[C@@H]2[C@H](CCN2C(=O)[C@H](Cc2c[nH]c3ccccc23)N(C)C)Oc2ccc(O)c(c2)/C=C\NC1=O` (stereo partly shown) [Compound 16, O-desmethylnummularine-R], the IC50 was 7.1 ± 1.6 µM in series [4] and over 64 µM in series [5] (setting [7]). For `CCC(C)[C@@H]1NC(=O)[C@@H]2[C@H](CCN2C(=O)[C@H](Cc2c[nH]c3ccccc23)N(C)C)Oc2ccc(cc2)/C=C\NC1=O` (stereo partly shown) [Compound 17, Hemsine-A], the IC50 is 13.6 ± 9.3 µM in series [4] and over 64 µM in series [5] (setting [7]). In the case of `CCC(C)[C@@H]1NC(=O)[C@@H]2[C@H](CCN2C(=O)[C@H](C(C)CC)N(C)C)Oc2ccc(cc2)/C=C\NC1=O` (stereo partly shown) [Compound 18, Ramosine-A], the half-maximal inhibitory concentration (IC50) in series [4] is over 32 µM; in series [5] (setting [7]), over 64 µM. On to `O=C1N/C=C\c2ccc(cc2)O[C@@H](c2ccccc2)[C@H](NC(=O)[C@@H]2CCCN2C(=O)/C=C/c2ccccc2)C(=O)N[C@H]1C(O)c1ccccc1` (stereo partly shown) [Compound 19, Oxyphylline-F], for which the results for the IC50 in series [4] and in series [5] (setting [7]) were 7.4 ± 3 µM and 31.2 ± 1.4 µM, respectively. As to `CCC(C)[C@H](C(=O)N[C@@H](CC(C)C)C(=O)N1CC[C@@H]2Oc3ccc(OC)c(c3)/C=C\NC(=O)[C@@H]3CCCN3C(=O)[C@H]21)N(C)C` (stereo partly shown) [ziziphine-N], the “antiplasmodial IC50” value in series [3] (Suksamrarn et al.) was 3.92 µg/mL. In series [3] (setting [8]), the IC50 was 6.4 µM. As for `CCC(C)[C@@H](NC)C(=O)N[C@@H](CC(C)C)C(=O)N1CC[C@@H]2Oc3ccc(OC)c(c3)/C=C\NC(=O)[C@@H]3CCCN3C(=O)[C@H]21` (stereo partly shown) [ziziphine-O], the “antiplasmodial activity (in words)” value in series [3] (Suksamrarn et al.) is listed as “not active”. Consider `CCC(C)[C@H](C(=O)N[C@H](C(=O)N1CC[C@@H]2Oc3ccc(OC)c(c3)/C=C\NC(=O)[C@@H]3CCCN3C(=O)[C@H]21)C(C)C)N(C)C` (stereo partly shown) [ziziphine-Q], for which the “antiplasmodial IC50” value in series [3] (Suksamrarn et al.) was 3.5 µg/mL. Besides, the IC50 in series [3] (setting [8]) was 5.9 µM. mauritine-L: the “antiplasmodial activity against Plasmodium falciparum (in words)” value in series [3] (Panseeta et al.) is “not”. As to nummularine-B methiodide, in series [3] (Panseeta et al.), the “antiplasmodial activity against Plasmodium falciparum (in words)” value is “not”. Regarding ziziphine-P, the “antiplasmodial activity (in words)” value in series [3] (Suksamrarn et al.) is “not active”.

Source of the values: paper PMC6155665, “Antiplasmodial Activity, Cytotoxicity and Structure-Activity Relationship Study of Cyclopeptide Alkaloids” (Molecules : A Journal of Synthetic Chemistry and Natural …, 2017).
